According to patent US20030170312A1, “Method for coating solid particles with a thermofusible agent, and resulting coated solid particles” (priority 2000, published 2003):
Blank lines part the entries; values can stand above or below the molecule they belong to.

Assay: Particle size (mean/median diameter, D50) before and after coating
Type: physicochemical
Excerpt: On FIG. 1, the distribution of the particles before and after coating has been represented. As shown in this figure, the set of coated particles has the same distribution as that of the uncoated particles, showing not only that the particles were evenly coated, but also that the amount of coating is less. Thus, it is observed that the mean diameter of the particles before coating is equal to 176 micrometers, while the mean diameter of the coated particles is equal to 180 micrometers. […] FIG. 2 represents in parallel the distribution of the particles before and after coating. As shown in this figure, the set of coated particles has the same distribution as those of the uncoated particles, showing not only that the particles were evenly coated, but also that the amount of coating is less. Thus, it is observed that the mean diameter of the particles before coating is equal to 60 micrometers, while the mean diameter of the coated particles is equal to 75 micrometers. The table below represents the mean size of the ibuprofen particles (D50) before and after coating. FIG. 5 represents in parallel the distribution of the particles before and after coating.

Mean (D50) size of the ibuprofen particles (Example 2: ibuprofen with PRECIROL in the proportion of 15%): 130.0 μm
Compound: CC(C)Cc1ccc(C(C)C(=O)O)cc1 (stereo not drawn) [5200I1014, ibuprofen]

Median (D50) particle size (Example 4: paracetamol with Precirol ATO 5, theoretical 6% by mass): 326.1 μm
Compound: CC(=O)Nc1ccc(O)cc1 [compound 99292402, Paracetamol]

mean diameter of the particles (Example 1: ibuprofen before and after coating with PRECIROL, coating 7% by weight): 176 micrometers
Compound: CC(C)Cc1ccc(C(C)C(=O)O)cc1 (stereo not drawn) [ibuprofen]
